Source: US11904049B2, “Pharmaceutical formulation” (priority 2017, dated 2024)
Structures can show the parent of a compound that is named as a salt.

Tests used:
[1] = cited from earlier work
in vivo = conditions: male, beagle, dog, plasma, intravenous, 0.143 mg/kg
Method: The three beagle dogs used in the experiment were male, non-naïve beagle dogs, weighing 12.7-13.9 kg, 37-39.5 months old, from CEDS (France) at the first session.
At each test session, serial blood samples were collected in all dogs at 12 time points: pre-dose, and then 0.083 (5 min), 0.167 (10 min), 0.33 (20 min), 0.5 (30 min), 1, 2, 3, 4, 5, 6 and 8 hours after the initial application, giving therefore a total of 180 blood samples. At each time-point, a blood sample of 2 mL was collected by puncture in a jugual vein in conscious animals using an identified vacuum tube containing K2-EDTA (Greiner Bio-One ref #454047) for plasma preparation. Immediately after collection, the blood sample was gently agitated and stored on ice until centrifugation (within 30 minutes of sampling). The blood samples were centrifuged at 4° C., at 1500 g, for 10 minutes. The entire resultant plasma was immediately transferred into an identified 1 mL polypropylene screw capped cryotube (1 aliquot of at least 800 μL of plasma) maintained on ice. The tubes were stored upright at approximately −20° C. until shipment to the test site, ABS Laboratories (BioPark, Broadwater Road, Welwyn Garden City, Herts AL7 3AX), for analysis by HPLC-MS (high performance liquid chromatography-mass spectrometry) using a standard separation protocol.
Individual concentration (C) versus time (T) curves were analysed for standard pharmacokinetic (PK) parameters using non-compartmental analysis using the SimBiology package of MatLab, Version 2015b.

Compound | strongest basic pKa [1] | pKa ([1]; naloxone as a base) | AUC(0-t) (in vivo) | Cmax (in vivo) | Tmax (in vivo) | concentration at 5 min (in vivo)
C=CCN1CC[C@]23c4c5ccc(O)c4O[C@H]2C(=O)CC[C@@]3(O)[C@H]1C5 [naloxone] | 10.07 | 7.84 |  |  |  | 
C=CCN1CC[C@]23c4c5ccc(O)c4O[C@H]2C(=O)CC[C@@]3(O)[C@H]1C5 [Intravenous, Naloxone HCl] |  |  | 20.8 ng·h/mL | 29.4 ng/mL | 6.7 min | 28.2 ng/mL
